From patent US11040085B2, “Pharmaceutical composition containing F1 polypeptide and/or F3 polypeptide and use thereof” (priority 2016, dated 2021)

Tests used:
[1] = test system: Hela cells; assay: MTT assay, growth of human cervical carcinoma cells (HELA) in vitro; format: cell-based; conditions: different dosages, overnight, MTT assay (FIG. 7)
[2] = test system: condyloma acuminate; conditions: topical application of 5% emulsion; cited from earlier work
[3] = test system: NP69 cells; assay: MTT assay, immortalized normal cells NP69; format: cell-based; conditions: different concentrations, incubated overnight, MTT assay (FIG. 1D)
Protocol: Immortalized normal cells NP69 were used in another experiment. More specifically, 100 μL of 5×10^3 NP69 cells cultured in a RPMI medium containing 10% of calf serum were added into a 96-well cell culture plate, the F1 polypeptide, the F3 polypeptide, and control polypeptide P3 (FIG. 1D) with different concentrations were added respectively and incubated overnight in an incubator with 5% of CO2 at 37° C., and the cell proliferation was determined by a MTT assay.

[4] = test system: TC-1 cells; format: cell-based; conditions: different concentrations, incubated overnight, MTT assay (FIG. 1A-1C)
Protocol: More specifically, in the method, 100 μL of 5×10^3 TC-1 cells cultured in a RPMI medium containing 10% of calf serum were added into a 96-well cell culture plate, the F1 polypeptide (FIG. 1A), the F3 polypeptide (FIG. 1B), and control polypeptide P3 (FIG. 1C) with different concentrations were added respectively and incubated overnight in an incubator with 5% of CO2 at 37° C., and the cell proliferation was determined by a MTT assay.
(§1) 100 μL of 5×10^3 TC-1 cells cultured in a RPMI medium containing 10% of calf serum were added into a 96-well cell culture plate, 5 μg/mL of F1 and/or F3 and control polypeptides P3 and F4 were added respectively and incubated overnight in an incubator with 5% of CO2 at 37° C., and the cell proliferation was determined by a MTT assay.
as §1, with “and/or Imiquimod” for “and control polypeptides P3 and F4”

[5] = test system: tumor; conditions: M. A. Apponyi, et al., Peptides, 2004, 25, 1035; cited from earlier work
[6] = test system: TC-1 cells; assay: Stability in vitro (Tests 1-3), MTT assay on TC-1 cells; format: cell-based, mouse; conditions: for inhibiting effect on growth of TC-1 cells at 72th hour: Test 1, 10 μg/ml, incubated 72 hours (FIG. 10A); for activity after being prepared and stored for 7 days: Test 2, stored at minus 20° C. before using, 10 μg/ml, 24 hours incubation (FIG. 10B); for activity in PBS with a pH value of 5.5: Test 3, 10 μg/ml; for activity in PBS with a pH value of 5.5 / activity in PBS heated at 100° C.: 24 hours incubation (FIG. 10C); for activity in PBS heated at 100° C.: Test 3, PBS heated 10 minutes at 100° C. before using
Protocol: RPMI medium containing 10% of calf serum and 5×10^3 TC-1 cells were added into a 96-well cell culture plate; 10 μg/ml of the F1 polypeptide, the F3 polypeptide, and a mixture of F1 and F3 in a ratio of 1:1 were added respectively into the medium and incubated for 72 hours in an incubator with 5% of CO2 at 37° C., and the cell proliferations at 24th hour, 48th hour, and 72th hour were determined respectively by the MTT assay.
The steps in the Test 2 were substantially the same as those in the Test 1, except that the F1 polypeptide and the F3 polypeptide which had been prepared and stored for 0, 1, 3, 5, and 7 days at minus 20° C. respectively before using were added into the medium, and the incubation was performed for 24 hours.
The steps in the Test 3 were substantially the same as those in the Test 1, except that the pH value of the phosphate buffer saline (PBS) in the medium was changed or the PBS is heated for 10 minutes at 100° C. before using, and the incubation was performed for 24 hours. Referring to FIG. 10C, it can be seen that the F1 polypeptide and the F3 polypeptide were still active even in the PBS with a pH value of 5.5 or heated at 100° C.

[7] = test system: IL-6; assay: IL-6 level in TC-1 culture solution by ELISA; format: cell-based, mouse; conditions: for change of IL-6 levels with increase of concentration: 5 μg/mL to 10 μg/mL, overnight (FIG. 12A, 12B); for IL-6 level in TC-1 culture solution: 5 μg/mL, overnight, vs untreated solution or P3 polypeptide (FIG. 12A)
Protocol: FIGS. 12A and 12B are graphs illustrating IL-6 levels (detected by ELISA) in TC-1 culture solutions treated by 5 μg/mL and 10 μg/mL of the P3 polypeptide, the F1 polypeptide, the F3 polypeptide, and a mixture of F1 and F3 overnight, respectively. […] IL-6 levels were decreased with increase of concentration of the F1 polypeptide, the F3 polypeptide, or the mixture of F1 and F3, which may be resulted from apoptosis of TC-1 cells induced by high concentration of the F1 polypeptide, the F3 polypeptide, or the mixture of F1 and F3.

[8] = test system: TC-1 cells; assay: Interaction of FITC-labeled polypeptide with TC-1 cell (flow cytometry, confocal microscopy); format: cell-based, mouse; conditions: 2 μg/mL FITC-labeled polypeptide, flow cytometry (FIG. 5A)
Protocol: The separated protein was digested by trypsin, polypeptides produced from the digestion was labeled by iTRAQ 4-plex reagents, and the labeled polypeptides were quantitatively analyzed by using a system combining a nano high performance liquid chromatography and a triple time of flight mass spectrometer. […] Besides, the F3 polypeptide and a control polypeptide P3 were labeled by fluorescent dye fluorescein isothiocyanate (FITC), incubated together with TC-1 cells for different periods, and repeatedly washed, thereafter a fluorescence intensity of FITC in the TC-1 cell was detected by a flow cytometry (FIG. 5A).
1000 μL of 5×10^5 TC-1 cells cultured in a RPMI medium containing 10% of calf serum were added into a 24-well cell culture plate, 2 μg/mL of the F3 polypeptide labeled by FITC was added into the cells being incubated, cells at different time points of the incubation were collected and washed with PBS buffer solution, and then the relationship between the F3 polypeptide and TC-1 cell was observed by a flow cytometer (FIG. 5A) or a confocal microscopy (FIG. 5B).

Compound: CC(C)Cn1cnc2c(N)nc3ccccc3c21 [Imiquimod]
- inhibiting effect on growth of Hela cells in vitro [1]: inhibiting effect
- recurrence rate [2]: about 10%

Compound: F1 polypeptide: polypeptide of SEQ ID NO: 1, sequence found in tree frog secretion, made by solid phase peptide synthesis; Caerin polypeptide (GLLSVLGSVAKHVLPHVVPVIAEHL; the sequence is synthesized)
- inhibiting effect on NP69 cells [3]: no inhibiting effect
- inhibiting effect on growth of TC-1 cells [4]: obvious inhibiting effects
- effect on tumor [5]: inhibiting effect on tumor
- inhibiting effect on growth of TC-1 cells at 72th hour [6]: significant inhibiting effects
- activity after being prepared and stored for 7 days [6]: not reduced
- activity in PBS with a pH value of 5.5 [6]: still active
- activity in PBS heated at 100° C. [6]: still active
- change of IL-6 levels with increase of concentration [7]: decreased
- IL-6 level in TC-1 culture solution [7]: significantly higher

Compound: F3 polypeptide: polypeptide of SEQ ID NO: 2, sequence found in tree frog secretion, made by solid phase peptide synthesis; Caerin polypeptide (GLFGVLGSIAKHLLPHVVPVIAEKL; the sequence is synthesized)
- inhibiting effect on NP69 cells [3]: no inhibiting effect
- inhibiting effect on growth of TC-1 cells [4]: obvious inhibiting effects
- time at which FITC was found in TC-1 cell [8]: 15 min
- time of peak fluorescence intensity of FITC in TC-1 cell [8]: 2 h
- inhibiting effect on growth of TC-1 cells at 72th hour [6]: significant inhibiting effects
- activity after being prepared and stored for 7 days [6]: not reduced
- activity in PBS with a pH value of 5.5 [6]: still active
- activity in PBS heated at 100° C. [6]: still active
- change of IL-6 levels with increase of concentration [7]: decreased
- IL-6 level in TC-1 culture solution [7]: significantly higher
